Measurements taken from patent US20220000841A1, “INHIBITORS OF METALLO-BETA-LACTAMASES” (CENTRE NATIONAL DE LA RECHERCHE SCIENTIFIQUE, priority 2018, published 2022).

Columns and labels:
IMP-1 = IMP-1 (Serratia marcescens, UniProt P52699); experiment: Enzymatic assay for determination of inhibition constants, reporter substrate method, purified IMP-1; type: biochemical; details: for % inhibition IMP-1: at 100 μM (maximal tested concentration); for Ki: isolated MBL, competitive inhibition model;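 on all read-outs here: purified IMP-1 (1-70 nM) hydrolysing a reporter substrate, initial rates followed as absorbance change at 260, 300 or 482 nm in 50 mM HEPES pH 7.5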
Protocol: (§1) The reaction rate was measured as the variation of absorbance observed upon substrate hydrolysis in a UV-Vis spectrophotometer or microplate reader at a wavelength of 300 nm (imipenem, meropenem), 260 nm (cefotaxime) or 482 nm (nitrocefin) in 50 mM HEPES buffer (pH 7.5) and in the presence of a purified MBL enzyme (such as VIM-1, VIM-2, VIM-4, NDM-1 and IMP-1, at a final concentration ranging 1-70 nM).
(§2) The inhibition constants (Ki) were determined on the basis of a model of competitive inhibition by analyzing the dependence of the ratio v0/vi (v0, hydrolysis velocity in the absence of inhibitor; vi, hydrolysis velocity in the presence of inhibitor) as a function of [I] as already described [Docquier J. D., Lamotte-Brasseur J., Galleni M., Amicosante G., Frère J. M., Rossolini G. M. (2003) J. Antimicrob. […] The slope of the plot of v0/vi vs [I], which corresponds to Km^S/(Km^S+[S])Ki (where Km^S is the Km value of the reporter substrate and [S] its concentration in the reaction mixture) and allowed the calculation of the Ki value. Alternatively, a Dixon plot analysis was carried out, by measuring the initial hydrolysis rates in the presence of variable concentrations of inhibitor and substrate.

[1] = system: K. pneumoniae SI-001 (blaVIM-1+); experiment: Broth microdilution MIC of meropenem in absence and presence of MBL inhibitor, SI-001; type: cell-based; details: MBL inhibitor fixed at 32 μg/ml, Mueller-Hinton broth, duplicate
Protocol: (§3) This method was performed in agreement with the CLSI recommendations (document M07-A10, 2015, “Methods for Dilution Antimicrobial Susceptibility Tests for Bacteria That Grow Aerobically”).
(§4) MIC values of meropenem (MEM) were determined in duplicate in Mueller-Hinton broth as recommended by CLSI (document M07-A10, 2015), in absence and presence of a fixed concentration of MBL inhibitor (32 μg/ml).

VIM-2 = VIM-2 (Escherichia coli, UniProt Q5U7L7); experiment: Enzymatic assay for determination of inhibition constants, reporter substrate method, purified VIM-2; type: biochemical; details: isolated MBL, competitive inhibition model; read-out: Ki VIM-2;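 further: purified VIM-2 hydrolysing a reporter substrate (imipenem, meropenem, cefotaxime or nitrocefin), reaction rate read as absorbance change, HEPES 50 mM at pH 7.5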
Protocol: as §1, §2

[2] = system: K. pneumoniae S1-002 (blaVIM-4+); experiment: Broth microdilution MIC of meropenem in absence and presence of MBL inhibitor, S1-002; type: cell-based; details: MBL inhibitor fixed at 32 μg/ml, Mueller-Hinton broth, duplicate
Protocol: as §3, §4

VIM-1 = VIM-1 (Pseudomonas aeruginosa, UniProt A0A0F7KYQ8); experiment: Enzymatic assay for determination of inhibition constants, reporter substrate method, purified VIM-1; type: biochemical; details: isolated MBL, competitive inhibition model;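 further: initial hydrolysis rates of a reporter β-lactam (imipenem, meropenem, cefotaxime or nitrocefin) followed by absorbance change, purified enzyme at 1–70 nM in 50 mM HEPES pH 7.5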
NDM-1 = NDM-1 (Klebsiella pneumoniae, UniProt C7C422); experiment: Enzymatic assay for determination of inhibition constants, reporter substrate method, purified NDM-1; type: biochemical; details: for Ki: isolated MBL, competitive inhibition model;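 on all read-outs here: purified enzyme activity followed as absorbance change from reporter substrate hydrolysis on a UV-Vis spectrophotometer or plate reader, 50 mM HEPES pH 7.5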
Protocol: as §1, §2

VIM-4 = VIM-4 (Pseudomonas aeruginosa, UniProt Q8KRJ3); experiment: Enzymatic assay for determination of inhibition constants, reporter substrate method, purified VIM-4; type: biochemical; details: at 100 μM (maximal tested concentration);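 further: purified VIM-4 (1-70 nM) in 50 mM HEPES pH 7.5, reporter substrate hydrolysis rate tracked by absorbance change (nitrocefin 482 nm, imipenem or meropenem 300 nm, cefotaxime 260 nm)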
Protocol: as §1, §2

[3] = at 100 μM (maximal tested concentration)

Chain of NDM-1 (C7C422 29-270, looked up, species assumed): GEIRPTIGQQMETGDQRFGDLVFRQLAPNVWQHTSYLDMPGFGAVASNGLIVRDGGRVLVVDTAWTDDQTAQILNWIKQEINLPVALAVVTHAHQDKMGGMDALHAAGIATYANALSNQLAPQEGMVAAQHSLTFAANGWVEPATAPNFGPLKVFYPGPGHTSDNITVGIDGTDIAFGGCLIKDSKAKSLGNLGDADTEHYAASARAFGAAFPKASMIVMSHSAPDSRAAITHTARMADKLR
Chain of IMP-1 (P52699 19-246, looked up, species assumed): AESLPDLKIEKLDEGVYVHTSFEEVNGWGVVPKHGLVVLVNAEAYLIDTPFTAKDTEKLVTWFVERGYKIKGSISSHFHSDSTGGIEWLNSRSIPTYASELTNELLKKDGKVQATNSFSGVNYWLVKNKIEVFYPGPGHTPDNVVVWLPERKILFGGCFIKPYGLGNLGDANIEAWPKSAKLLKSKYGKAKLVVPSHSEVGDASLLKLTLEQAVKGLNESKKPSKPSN

Ki (IMP-1) [µM]	Compound	% inhibition IMP-1 (IMP-1) [% at 100 μM]	MIC potentiation of meropenem (x.log2 dilutions), K. pneumoniae SI-001 (blaVIM-1+) [1] [log2 dilutions]	Ki (VIM-2) [nM]	MIC potentiation of meropenem (x.log2 dilutions), K. pneumoniae S1-002 (blaVIM-4+) [2] [log2 dilutions]	Ki (VIM-1) [nM]	% inhibition NDM-1 (NDM-1; [3]) [% at 100 μM]	Ki (NDM-1) [µM]	% inhibition VIM-4 (VIM-4) [% at 100 μM]	melting point [°C]	% inhibition NDM-1 (NDM-1; at 200 μM (maximal tested concentration)) [% at 200 μM]
–	O=[N+]([O-])c1ccccc1CSCCn1c(-c2ccccc2)n[nH]c1=S [Compound 75, 4-[2-(2-Nitrobenzylsulfanyl)ethyl]-3-phenyl-4,5-dihydro-1H-1,2,4-triazole-5-thione]	72	3	< 1000	≥4	< 1000	69	–	–	–	–
1 to 10	Fc1ccc(CSCCn2c(-c3ccccc3)n[nH]c2=S)c(F)c1 [Compound 73, 4-[2-(2,4-Difluorobenzylsulfanyl)ethyl]-3-phenyl-4,5-dihydro-1H-1,2,4-triazole-5-thione]	–	3	< 1000	≥4	1000 to 10000	–	10 to 100	–	–	–
–	O=C(O)C(CSCCn1c(-c2cccc(-c3ccccc3)c2)n[nH]c1=S)c1ccccc1 (stereo not drawn) [Compound 81, 3-{2-[3-(3-Biphenylyl)-5-thioxo-1,4-dihydro-1,2,4-triazol-4-yl]ethylthio}-hydratropic acid]	56	2	< 1000	3	1000 to 10000	77	–	–	–	–
–	S=c1[nH]nc(-c2ccccc2)n1CCSc1ccccc1 [Compound 70, 5-Phenyl-4-[2-(phenylthio)ethyl]-2,4-dihydro-1,2,4-triazole-3-thione]	84	≥4	1000 to 10000	≥4	1000 to 10000	–	10 to 100	–	–	–
> 100	Oc1ccc(CCn2c(-c3cccc(-c4ccccc4)c3)n[nH]c2=S)c(O)c1 [Compound 42, 5-(3-Biphenyl)-4-[2-(2,4-dihydroxyphenyl)ethyl]-1,2,4-triazole-3-thione]	–	≥4	1000 to 10000	≥4	< 1000	–	10 to 100	–	–	–
–	Cn1cccc1-c1n[nH]c(=S)n1CCSCc1ccccc1 [Compound 64, 4-[2-(Benzylthio)ethyl]-5-(1-methyl-1H-pyrrol-2-yl)-2,4-dihydro-1,2,4-triazole-3-thione]	90	3	< 1000	≥4	< 1000	75	–	–	–	–
> 100	CN1CCN(CCOc2cccc(-c3n[nH]c(=S)n3CCc3ccccc3C(=O)O)c2)CC1 [Compound 63, o-[2-(3-{m-[2-(4-Methyl-1-piperazinyl)ethoxy]phenyl}-5-thioxo-1,4-dihydro-1,2,4-triazol-4-yl)ethyl]benzoic acid]	–	2	< 1000	3	1000 to 10000	–	> 100	–	–	–
10 to 100	Cc1ccccc1-c1n[nH]c(=S)n1CCSCc1ccccc1 [Compound 80, 4-[2-(Benzylthio)ethyl]-5-(o-tolyl)-2,4-dihydro-1,2,4-triazole-3-thione]	–	2	< 1000	3	< 1000	–	10 to 100	–	–	–
–	O=[N+]([O-])c1ccc(O)c(CSCCn2c(-c3ccccc3)n[nH]c2=S)c1 [Compound 76, 4-[2-(2-Hydroxy-5-Nitrobenzylsulfanyl)ethyl]-3-phenyl-4,5-dihydro-1H-1,2,4-triazole-5-thione]	62	≥4	< 1000	2	< 1000	77	–	–	–	–
–	O=[N+]([O-])c1ccc(CSCCn2c(-c3ccccc3)n[nH]c2=S)cc1 [Compound 74, 4-[2-(4-Nitrobenzylsulfanyl)ethyl]-3-phenyl-4,5-dihydro-1H-1,2,4-triazole-5-thione]	92	3	1000 to 10000	≥4	< 1000	95	–	–	–	–
–	S=c1[nH]nc(-c2ccccc2)n1CCSCCc1ccccc1 [Compound 77, 4-[2-(2-Phenylethylsulfanyl)ethyl]-3-phenyl-4,5-dihydro-1H-1,2,4-triazole-5-thione]	89	3	1000 to 10000	≥4	< 1000	92	–	–	–	–
> 100	O=C(O)c1ccccc1CCn1c(-c2cccc(-c3ccccc3)c2)n[nH]c1=S [Compound 39, 5-(3-Biphenyl)-4-[2-(2-carboxyphenyl)ethyl]-1,2,4-triazole-3-thione]	–	3	< 1000	≥4	1000 to 10000	–	> 100	–	–	–
–	Fc1ccccc1CSCCn1c(-c2ccccc2)n[nH]c1=S [Compound 71, 4-[2-(2-Fluorobenzylsulfanyl)ethyl]-3-phenyl-4,5-dihydro-1H-1,2,4-triazole-5-thione]	97	≥4	< 1000	3	< 1000	–	10 to 100	–	–	–
–	Fc1ccc(CSCCn2c(-c3ccccc3)n[nH]c2=S)cc1 [Compound 72, 4-[2-(4-Fluorobenzylsulfanyl)ethyl]-3-phenyl-4,5-dihydro-1H-1,2,4-triazole-5-thione]	96	1	< 1000	3	1000 to 10000	–	1 to 10	–	–	–
> 100	O=C(O)c1ccccc1CCn1c(-c2cccc(OCCN3CCOCC3)c2)n[nH]c1=S [Compound 62, o-(2-{3-[m-(2-Morpholinoethoxy)phenyl]-5-thioxo-1,4-dihydro-1,2,4-triazol-4-yl}ethyl)benzoic acid]	–	2	< 1000	3	1000 to 10000	–	> 100	–	–	–

Compound	Ki (IMP-1) [µM]	% inhibition IMP-1 (IMP-1) [% at 100 μM]	MIC potentiation of meropenem (x.log2 dilutions), K. pneumoniae SI-001 (blaVIM-1+) [1] [log2 dilutions]	Ki (VIM-2) [nM]	MIC potentiation of meropenem (x.log2 dilutions), K. pneumoniae S1-002 (blaVIM-4+) [2] [log2 dilutions]	Ki (VIM-1) [nM]	% inhibition NDM-1 (NDM-1; [3]) [% at 100 μM]	Ki (NDM-1) [µM]	% inhibition VIM-4 (VIM-4) [% at 100 μM]	melting point [°C]	% inhibition NDM-1 (NDM-1; at 200 μM (maximal tested concentration)) [% at 200 μM]
O=C1OC(Cn2c(-c3ccccc3)n[nH]c2=S)c2ccccc21 (stereo not drawn) [Compound 37, 5-Phenyl-4-[(3-phthalideyl)methyl]-2,4-dihydro-1,2,4-triazole-3-thione]	> 100	–	3	> 100000	3	< 1000	50	–	–	–	–
O=C(O)c1ccccc1CCn1c(-c2ccc3ccccc3c2)n[nH]c1=S [Compound 3, 2-{2-[3-(naphthalen-2-yl)-5-sulfanylidene-4,5-dihydro-1H-1,2,4-triazol-4-yl]ethyl}benzoic acid]	10 to 100	–	–	< 1000	–	> 100000	–	–	75	240 to 241	60
O=C(O)CCCn1c(-c2ccc3ccccc3c2)n[nH]c1=S [Compound 19, 4-[3-(naphthalen-2-yl)-5-sulfanylidene-4,5-dihydro-1H-1,2,4-triazol-4-yl]butanoic acid]	> 100	–	–	1000 to 10000	–	> 100000	–	> 100	75	220 to 221	–
O=C(O)CC(Cn1c(-c2ccccc2)n[nH]c1=S)c1ccc(Cl)cc1 (stereo not drawn) [Compound 21, 3-(4-chlorophenyl)-4-(3-phenyl-5-sulfanylidene-4,5-dihydro-1H-1,2,4-triazol-4-yl)butanoic acid]	> 100	–	–	1000 to 10000	–	> 100000	–	> 100	95	153 to 154	–
COc1ccc(O)c(-c2n[nH]c(=S)n2CCCC(=O)O)c1 [Compound 18, 4-[3-(2-hydroxy-5-methoxyphenyl)-5-sulfanylidene-4,5-dihydro-1H-1,2,4-triazol-4-yl]butanoic acid]	> 100	–	–	1000 to 10000	–	> 100000	–	> 100	90	155 to 156	–
